Laboratory results taken from patent publication US9988420B2, “Cytotoxic peptides and conjugates thereof” (priority 2013, dated 2018).
Non-standard residues stand in square brackets, D forms with d. Residues, ends and D or L forms follow the SMILES beside them. *: point of attachment. Dolaproine = CO[C@@H]([C@@H]1CCCN1)[C@@H](C)C(=O)O; Dil = CC[C@H](C)[C@H](NC)[C@@H](CC(=O)O)OC; X2 = CN1[C@@H]2CC[C@@H](C2)[C@H]1C(=O)*; Phe(ol) = N[C@H](CO)Cc1ccccc1

Experiments:
Assay in all cases: In vitro cell killing assay of payloads (cell proliferation, Cell-Titer-Glo)
Assay type in all cases: cell-based
JimT1 cells = settings: Homo sapiens, JIMT-1, 120 h; JimT1 cells; Cell-Titer-Glo after five days; Table 2b; read-out: In vitro cell killing (IC50 (nM)) JimT1
HCC1954 cells = settings: Homo sapiens, 120 h; HCC1954 cells; Cell-Titer-Glo after five days; Table 2b; read-out: In vitro cell killing (IC50 (nM)) HCC1954
H526 cells = settings: Homo sapiens, 120 h; NCI-H526 cells; Cell-Titer-Glo after five days; Table 2b; read-out: In vitro cell killing (IC50 (nM)) NCI-H526
SKBR3 cells = settings: Homo sapiens, SK-BR-3, 120 h, Cell-Titer-Glo after five days
A375 cells = settings: Homo sapiens, A-375, 120 h, Cell-Titer-Glo after five days
NCI-N87 cells = settings: Homo sapiens, 120 h, Cell-Titer-Glo after five days

SMILES | IC50 (JimT1 cells) [nM] | IC50 (HCC1954 cells) [nM] | IC50 (H526 cells) [nM] | IC50 (SKBR3 cells) [nM] | IC50 (A375 cells) [nM] | IC50 (NCI-N87 cells) [nM]
CC[C@H](C)[C@@H]([C@@H](CC(=O)N1CCC[C@H]1[C@H](OC)[C@@H](C)C(=O)N[C@H](CO)Cc1ccccc1)OC)N(C)C(=O)[C@@H](NC(=O)[C@@H]1[C@H]2CC[C@H](C2)N1C)C(C)C [Compound 51, (1R,3S,4S)-N-((S)-1-(((3R,4S,5S)-1-((S)-2-((1R,2R)-3-(((S)-1-Hydroxy-3-phenylpropan-2-yl)amino)-1-methoxy-2-methyl-3-oxopropyl)pyrrolidin-1-yl)-3-methoxy-5-methyl-1-oxoheptan-4-yl)(methyl)amino)-3-methyl-1-oxobutan-2-yl)-2-methyl-2-azabicyclo[2.2.1]heptane-3-carboxamide] (X2-V[Dil][Dolaproine][Phe(ol)]) | 0.081 | 0.028 | 0.184 | 0.035 | 0.154 | 0.053
CC[C@H](C)[C@@H]([C@@H](CC(=O)N1CCC[C@H]1[C@H](OC)[C@@H](C)C(=O)N[C@H](CO)Cc1cccc(N)c1)OC)N(C)C(=O)[C@@H](NC(=O)[C@@H]1[C@H]2CC[C@H](C2)N1C)C(C)C [Compound 52, (1R,3S,4S)-N-((S)-1-(((3R,4S,5S)-1-((S)-2-((1R,2R)-3-(((S)-1-(3-Aminophenyl)-3-hydroxypropan-2-yl)amino)-1-methoxy-2-methyl-3-oxopropyl)pyrrolidin-1-yl)-3-methoxy-5-methyl-1-oxoheptan-4-yl)(methyl)amino)-3-methyl-1-oxobutan-2-yl)-2-methyl-2-azabicyclo[2.2.1]heptane-3-carboxamide] |  | 0.019 |  | 0.046 | 0.923 | 0.068
CC[C@H](C)[C@@H]([C@@H](CC(=O)N1CCC[C@H]1[C@H](OC)[C@@H](C)C(=O)N[C@@H](Cc1ccccc1)CS(N)(=O)=O)OC)N(C)C(=O)[C@@H](NC(=O)[C@@H]1[C@H]2CC[C@H](C2)N1C)C(C)C [Compound 55, (1R,3S,4S)-N-((S)-1-(((3R,4S,5S)-3-methoxy-1-((S)-2-((1R,2R)-1-methoxy-2-methyl-3-oxo-3-(((S)-1-phenyl-3-sulfamoylpropan-2-yl)amino)propyl)pyrrolidin-1-yl)-5-methyl-1-oxoheptan-4-yl)(methyl)amino)-3-methyl-1-oxobutan-2-yl)-2-methyl-2-azabicyclo[2.2.1]heptane-3-carboxamide] | 0.751 | 0.124 | 0.364 | 0.21 | 2.75 | 0.643
